# Measured values published in ChEMBL document CHEMBL2440080, “Synthesis and biological evaluation of novel acylhydrazone derivatives as potential antitumor agents” (Bioorg Med Chem, 2013).
# Test system: CAKI-1
# Test: Cytotoxicity against human CAKI-1 cells after 48 hrs by sulforhodamine B assay
# Type: functional
# Conditions: CAKI-1, 48 h
row,SMILES,GI50 [µM]
1,COc1ccc(C(=O)N/N=C/c2ccc(O)cc2O)cc1Nc1ccnc(C(F)(F)F)c1,0.631
2,CCOc1cccc(/C=N/NC(=O)c2ccccc2Nc2ccnc(C(F)(F)F)c2)c1O,0.251

# Test system: Mus musculus
# Test: Toxicity in athymic nude mouse assessed as survival at 400 mg/kg, ip measured after 2 weeks
# Type: organism-based
# Parameters: dose 400 mg/kg, route intraperitoneal
# Conditions: in vivo, 336 h
row,SMILES,Activity
1,COc1ccc(C(=O)N/N=C/c2ccc(O)cc2O)cc1Nc1ccnc(C(F)(F)F)c1,Non-toxic
2,CCOc1cccc(/C=N/NC(=O)c2ccccc2Nc2ccnc(C(F)(F)F)c2)c1O,Non-toxic

# Test system: T47D
# Test: Cytotoxicity against human T47D cells after 48 hrs by sulforhodamine B assay
# Type: functional
# Conditions: not given
row,SMILES,GI50 [µM]
1,COc1ccc(C(=O)N/N=C/c2ccc(O)cc2O)cc1Nc1ccnc(C(F)(F)F)c1,0.794
2,CCOc1cccc(/C=N/NC(=O)c2ccccc2Nc2ccnc(C(F)(F)F)c2)c1O,0.794

# Test system: BT-549
# Test: Cytotoxicity against human BT549 cells after 48 hrs by sulforhodamine B assay
# Type: functional
# Conditions: BT-549, 48 h
row,SMILES,GI50 [µM]
1,COc1ccc(C(=O)N/N=C/c2ccc(O)cc2O)cc1Nc1ccnc(C(F)(F)F)c1,0.501
2,CCOc1cccc(/C=N/NC(=O)c2ccccc2Nc2ccnc(C(F)(F)F)c2)c1O,0.398

# Test system: NCI/ADR-RES
# Test: Cytotoxicity against human NCI/ADR-RES cells after 48 hrs by sulforhodamine B assay
# Type: functional
# Conditions: not given
row,SMILES,GI50 [µM]
1,COc1ccc(C(=O)N/N=C/c2ccc(O)cc2O)cc1Nc1ccnc(C(F)(F)F)c1,7.94
2,CCOc1cccc(/C=N/NC(=O)c2ccccc2Nc2ccnc(C(F)(F)F)c2)c1O,0.631

# Test system: DU-145
# Test: Cytotoxicity against human DU145 cells after 48 hrs by sulforhodamine B assay
# Type: functional
# Conditions: DU-145, 48 h
row,SMILES,GI50 [µM]
1,COc1ccc(C(=O)N/N=C/c2ccc(O)cc2O)cc1Nc1ccnc(C(F)(F)F)c1,0.631
2,CCOc1cccc(/C=N/NC(=O)c2ccccc2Nc2ccnc(C(F)(F)F)c2)c1O,0.794

# Test system: PC-3
# Test: Cytotoxicity against human PC3 cells after 48 hrs by sulforhodamine B assay
# Type: functional
# Conditions: PC-3, 48 h
row,SMILES,GI50 [µM]
1,COc1ccc(C(=O)N/N=C/c2ccc(O)cc2O)cc1Nc1ccnc(C(F)(F)F)c1,0.631
2,CCOc1cccc(/C=N/NC(=O)c2ccccc2Nc2ccnc(C(F)(F)F)c2)c1O,0.2

# Test system: TK-10
# Test: Cytotoxicity against human TK10 cells after 48 hrs by sulforhodamine B assay
# Type: functional
# Conditions: TK-10, 48 h
row,SMILES,GI50 [µM]
1,COc1ccc(C(=O)N/N=C/c2ccc(O)cc2O)cc1Nc1ccnc(C(F)(F)F)c1,0.501
2,CCOc1cccc(/C=N/NC(=O)c2ccccc2Nc2ccnc(C(F)(F)F)c2)c1O,0.631

# Test system: ACHN
# Test: Cytotoxicity against human ACHN cells after 48 hrs by sulforhodamine B assay
# Type: functional
# Conditions: not given
row,SMILES,GI50 [µM]
1,COc1ccc(C(=O)N/N=C/c2ccc(O)cc2O)cc1Nc1ccnc(C(F)(F)F)c1,2.51
2,CCOc1cccc(/C=N/NC(=O)c2ccccc2Nc2ccnc(C(F)(F)F)c2)c1O,0.316

# Test system: RXF 393
# Test: Cytotoxicity against human RXF393 cells after 48 hrs by sulforhodamine B assay
# Type: functional
# Conditions: RXF 393, 48 h
row,SMILES,GI50 [µM]
1,COc1ccc(C(=O)N/N=C/c2ccc(O)cc2O)cc1Nc1ccnc(C(F)(F)F)c1,10
2,CCOc1cccc(/C=N/NC(=O)c2ccccc2Nc2ccnc(C(F)(F)F)c2)c1O,12.6

# Test system: OVCAR-8
# Test: Cytotoxicity against human OVCAR8 cells after 48 hrs by sulforhodamine B assay
# Type: functional
# Conditions: OVCAR-8, 48 h
row,SMILES,GI50 [µM]
1,COc1ccc(C(=O)N/N=C/c2ccc(O)cc2O)cc1Nc1ccnc(C(F)(F)F)c1,0.794
2,CCOc1cccc(/C=N/NC(=O)c2ccccc2Nc2ccnc(C(F)(F)F)c2)c1O,0.501

# Test system: OVCAR-4
# Test: Cytotoxicity against human OVCAR4 cells after 48 hrs by sulforhodamine B assay
# Type: functional
# Conditions: OVCAR-4, 48 h
row,SMILES,GI50 [µM]
1,COc1ccc(C(=O)N/N=C/c2ccc(O)cc2O)cc1Nc1ccnc(C(F)(F)F)c1,0.631
2,CCOc1cccc(/C=N/NC(=O)c2ccccc2Nc2ccnc(C(F)(F)F)c2)c1O,0.251

# Test system: IGROV-1
# Test: Cytotoxicity against human IGROV1 cells after 48 hrs by sulforhodamine B assay
# Type: functional
# Conditions: IGROV-1, 48 h
row,SMILES,GI50 [µM]
1,COc1ccc(C(=O)N/N=C/c2ccc(O)cc2O)cc1Nc1ccnc(C(F)(F)F)c1,0.631
2,CCOc1cccc(/C=N/NC(=O)c2ccccc2Nc2ccnc(C(F)(F)F)c2)c1O,0.0398

# Test system: OVCAR-3
# Test: Cytotoxicity against human OVCAR3 cells after 48 hrs by sulforhodamine B assay
# Type: functional
# Conditions: OVCAR-3, 48 h
row,SMILES,GI50 [µM]
1,COc1ccc(C(=O)N/N=C/c2ccc(O)cc2O)cc1Nc1ccnc(C(F)(F)F)c1,0.316
2,CCOc1cccc(/C=N/NC(=O)c2ccccc2Nc2ccnc(C(F)(F)F)c2)c1O,0.316

# Test system: UACC-62
# Test: Cytotoxicity against human UACC62 cells after 48 hrs by sulforhodamine B assay
# Type: functional
# Conditions: UACC-62, 48 h
row,SMILES,GI50 [µM]
1,COc1ccc(C(=O)N/N=C/c2ccc(O)cc2O)cc1Nc1ccnc(C(F)(F)F)c1,0.501
2,CCOc1cccc(/C=N/NC(=O)c2ccccc2Nc2ccnc(C(F)(F)F)c2)c1O,0.501

# Test system: M14
# Test: Cytotoxicity against human M14 cells after 48 hrs by sulforhodamine B assay
# Type: functional
# Conditions: M14, 48 h
row,SMILES,GI50 [µM]
1,COc1ccc(C(=O)N/N=C/c2ccc(O)cc2O)cc1Nc1ccnc(C(F)(F)F)c1,0.794
2,CCOc1cccc(/C=N/NC(=O)c2ccccc2Nc2ccnc(C(F)(F)F)c2)c1O,0.631

# Test system: LOX IMVI
# Test: Cytotoxicity against human LOXIMVI cells after 48 hrs by sulforhodamine B assay
# Type: functional
# Conditions: not given
row,SMILES,GI50 [µM]
1,COc1ccc(C(=O)N/N=C/c2ccc(O)cc2O)cc1Nc1ccnc(C(F)(F)F)c1,0.501
2,CCOc1cccc(/C=N/NC(=O)c2ccccc2Nc2ccnc(C(F)(F)F)c2)c1O,0.2

# Test system: SNB-75
# Test: Cytotoxicity against human SNB75 cells after 48 hrs by sulforhodamine B assay
# Type: functional
# Conditions: SNB-75, 48 h
row,SMILES,GI50 [µM]
1,COc1ccc(C(=O)N/N=C/c2ccc(O)cc2O)cc1Nc1ccnc(C(F)(F)F)c1,0.794
2,CCOc1cccc(/C=N/NC(=O)c2ccccc2Nc2ccnc(C(F)(F)F)c2)c1O,0.398

# Test system: U-251
# Test: Cytotoxicity against human U251 cells after 48 hrs by sulforhodamine B assay
# Type: functional
# Conditions: U-251, 48 h
row,SMILES,GI50 [µM]
1,COc1ccc(C(=O)N/N=C/c2ccc(O)cc2O)cc1Nc1ccnc(C(F)(F)F)c1,0.398
2,CCOc1cccc(/C=N/NC(=O)c2ccccc2Nc2ccnc(C(F)(F)F)c2)c1O,0.398

# Test system: SF-295
# Test: Cytotoxicity against human SF295 cells after 48 hrs by sulforhodamine B assay
# Type: functional
# Conditions: SF-295, 48 h
row,SMILES,GI50 [µM]
1,COc1ccc(C(=O)N/N=C/c2ccc(O)cc2O)cc1Nc1ccnc(C(F)(F)F)c1,0.794
2,CCOc1cccc(/C=N/NC(=O)c2ccccc2Nc2ccnc(C(F)(F)F)c2)c1O,0.501

# Test system: SF-268
# Test: Cytotoxicity against human SF268 cells after 48 hrs by sulforhodamine B assay
# Type: functional
# Conditions: SF-268, 48 h
row,SMILES,GI50 [µM]
1,COc1ccc(C(=O)N/N=C/c2ccc(O)cc2O)cc1Nc1ccnc(C(F)(F)F)c1,0.316
2,CCOc1cccc(/C=N/NC(=O)c2ccccc2Nc2ccnc(C(F)(F)F)c2)c1O,0.794

# Test system: KM12
# Test: Cytotoxicity against human KM12 cells after 48 hrs by sulforhodamine B assay
# Type: functional
# Conditions: KM12, 48 h
row,SMILES,GI50 [µM]
1,COc1ccc(C(=O)N/N=C/c2ccc(O)cc2O)cc1Nc1ccnc(C(F)(F)F)c1,1.58
2,CCOc1cccc(/C=N/NC(=O)c2ccccc2Nc2ccnc(C(F)(F)F)c2)c1O,0.501

# Test system: HCT-116
# Test: Cytotoxicity against human HCT116 cells after 48 hrs by sulforhodamine B assay
# Type: functional
# Conditions: HCT-116, 48 h
row,SMILES,GI50 [µM]
1,COc1ccc(C(=O)N/N=C/c2ccc(O)cc2O)cc1Nc1ccnc(C(F)(F)F)c1,0.251
2,CCOc1cccc(/C=N/NC(=O)c2ccccc2Nc2ccnc(C(F)(F)F)c2)c1O,0.316

# Test system: HCT-15
# Test: Cytotoxicity against human HCT15 cells after 48 hrs by sulforhodamine B assay
# Type: functional
# Conditions: HCT-15, 48 h
row,SMILES,GI50 [µM]
1,COc1ccc(C(=O)N/N=C/c2ccc(O)cc2O)cc1Nc1ccnc(C(F)(F)F)c1,2.51
2,CCOc1cccc(/C=N/NC(=O)c2ccccc2Nc2ccnc(C(F)(F)F)c2)c1O,0.251

# Test system: NCI-H460
# Test: Cytotoxicity against human NCI-H460 cells after 48 hrs by sulforhodamine B assay
# Type: functional
# Conditions: NCI-H460, 48 h
row,SMILES,GI50 [µM]
1,COc1ccc(C(=O)N/N=C/c2ccc(O)cc2O)cc1Nc1ccnc(C(F)(F)F)c1,3.16
2,CCOc1cccc(/C=N/NC(=O)c2ccccc2Nc2ccnc(C(F)(F)F)c2)c1O,0.251

# Test system: NCI-H322M
# Test: Cytotoxicity against human NCI-H322M cells after 48 hrs by sulforhodamine B assay
# Type: functional
# Conditions: not given
row,SMILES,GI50 [µM]
1,COc1ccc(C(=O)N/N=C/c2ccc(O)cc2O)cc1Nc1ccnc(C(F)(F)F)c1,0.501
2,CCOc1cccc(/C=N/NC(=O)c2ccccc2Nc2ccnc(C(F)(F)F)c2)c1O,0.398

# Test system: HOP-92
# Test: Cytotoxicity against human HOP92 cells after 48 hrs by sulforhodamine B assay
# Type: functional
# Conditions: HOP-92, 48 h
row,SMILES,GI50 [µM]
1,COc1ccc(C(=O)N/N=C/c2ccc(O)cc2O)cc1Nc1ccnc(C(F)(F)F)c1,0.316
2,CCOc1cccc(/C=N/NC(=O)c2ccccc2Nc2ccnc(C(F)(F)F)c2)c1O,0.158

# Test system: not listed separately
# Test: Cytotoxicity against human EKVX cells after 48 hrs by sulforhodamine B assay
# Type: functional
# Conditions: not given
row,SMILES,GI50 [µM]
1,COc1ccc(C(=O)N/N=C/c2ccc(O)cc2O)cc1Nc1ccnc(C(F)(F)F)c1,0.398
2,CCOc1cccc(/C=N/NC(=O)c2ccccc2Nc2ccnc(C(F)(F)F)c2)c1O,0.251

# Test system: HOP-62
# Test: Cytotoxicity against human HOP62 cells after 48 hrs by sulforhodamine B assay
# Type: functional
# Conditions: HOP-62, 48 h
row,SMILES,GI50 [µM]
1,COc1ccc(C(=O)N/N=C/c2ccc(O)cc2O)cc1Nc1ccnc(C(F)(F)F)c1,0.501
2,CCOc1cccc(/C=N/NC(=O)c2ccccc2Nc2ccnc(C(F)(F)F)c2)c1O,0.501

# Test system: SR
# Test: Cytotoxicity against human SR cells after 48 hrs by sulforhodamine B assay
# Type: functional
# Conditions: not given
row,SMILES,GI50 [µM]
1,COc1ccc(C(=O)N/N=C/c2ccc(O)cc2O)cc1Nc1ccnc(C(F)(F)F)c1,0.158
2,CCOc1cccc(/C=N/NC(=O)c2ccccc2Nc2ccnc(C(F)(F)F)c2)c1O,0.0631

# Test system: RPMI-8226
# Test: Cytotoxicity against human RPMI8226 cells after 48 hrs by sulforhodamine B assay
# Type: functional
# Conditions: RPMI-8226, 48 h
row,SMILES,GI50 [µM]
1,COc1ccc(C(=O)N/N=C/c2ccc(O)cc2O)cc1Nc1ccnc(C(F)(F)F)c1,2.51
2,CCOc1cccc(/C=N/NC(=O)c2ccccc2Nc2ccnc(C(F)(F)F)c2)c1O,0.251

# Test system: MOLT-4
# Test: Cytotoxicity against human MOLT4 cells after 48 hrs by sulforhodamine B assay
# Type: functional
# Conditions: MOLT-4, 48 h
row,SMILES,GI50 [µM]
1,COc1ccc(C(=O)N/N=C/c2ccc(O)cc2O)cc1Nc1ccnc(C(F)(F)F)c1,0.398
2,CCOc1cccc(/C=N/NC(=O)c2ccccc2Nc2ccnc(C(F)(F)F)c2)c1O,0.126

# Test system: CCRF-CEM
# Test: Cytotoxicity against human CCRF-CEM cells after 48 hrs by sulforhodamine B assay
# Type: functional
# Conditions: not given
row,SMILES,GI50 [µM]
1,COc1ccc(C(=O)N/N=C/c2ccc(O)cc2O)cc1Nc1ccnc(C(F)(F)F)c1,0.251
2,CCOc1cccc(/C=N/NC(=O)c2ccccc2Nc2ccnc(C(F)(F)F)c2)c1O,0.251

# Test system: HL-60(TB)
# Test: Cytotoxicity against human HL-60(TB) cells after 48 hrs by sulforhodamine B assay
# Type: functional
# Conditions: HL-60, 48 h
row,SMILES,GI50 [µM]
1,COc1ccc(C(=O)N/N=C/c2ccc(O)cc2O)cc1Nc1ccnc(C(F)(F)F)c1,0.316
2,CCOc1cccc(/C=N/NC(=O)c2ccccc2Nc2ccnc(C(F)(F)F)c2)c1O,0.251
